Laboratory results as given in publication PMC11025159 (Journal of Translational Medicine, 2024).
Where two headings read alike, the source gives them in different places.

Tests used:
[1] = tested on: IFN-γ-producing CD4+ T-cells; assay: T-cell differentiation of splenocytes, IFN-γ in CD4+ T-cells (Th1), flow cytometry; assay type: cell-based, C57BL/6 mice; settings: dose-dependent, 0.01-10 µM
Method: Splenocytes were isolated from the spleen of C57BL/6 mice. The whole spleen was crushed in a complete RPMI medium and passed through the 40 µm cell filter to obtain a single-cell suspension. The cell suspension was centrifuged at 300×g for 5 min, and the pellet was resuspended into the 1× RBC lysis buffer (Life Technology, Thermofisher, USA) for 10 min at room temperature to lyse the red blood cells. The sample was further centrifuged at the same speed and duration, and the pellet was resuspended in complete RPMI medium. Now, splenocytes were seeded into the 96-well plates (U bottom) at 3 × 10^5 cells/well density. […] For Th1 and Tc1 differentiation, IL-12 (5 ng/ml) was added and allowed to grow for four days.
Prior to harvesting, cells were further stimulated with PMA (50 ng/ml), ionomycin (1000 ng/ml), and glogi Stop (as per manufacturer recommendation) for 4 h. The plate was spun down at 2000 rpm for 10 min and washed once with FACS buffer (3% FBS, 1× PBS, and 200 mM EDTA). Cells were stained with anti-CD4-PerCP and anti-CD8-FITC antibodies (BD, Biosciences) in the dilution 1:400 by adding 100 µl/well and incubated at RT for 60 min. […] Cells were finally washed and resuspended into FACS buffer, and data was recorded into the BD accuri C6 flow cytometer, and data were analyzed by Flowjo.

[2] = target: T1, PI-3-K α (Homo sapiens, UniProt P42336); assay: Cell-free kinase assay PI-3-K α; assay type: biochemical; settings: Km ATP
T1 construct: purchased Promega Corporation V1690
Method: (§1) The cell-free kinase assays of small molecules were determined by following the manufacturer-recommended protocols. Different concentrations in triplicate were used to determine the IC50 value of the hit molecules (active molecules). For data analysis, GraphPad Prism V9.5 Software and a sigmoidal dose–response (variable slope) equation were used. Each value represents an average of three replicates per concentration.

[3] = tested on: HCT-116; assay: MTT cell viability assay HCT-116; assay type: cell-based, human; settings: Homo sapiens, HCT-116, 48 h
Method: (§2) Cell viability was evaluated using an MTT colorimetric assay. Cells were seeded (10^5 cells/mL) in 96-well plates and allowed to grow overnight at 37 ℃ with 5% CO2 in a cell-culture incubator. On the following day, the cells were treated with small molecules at different concentrations (0.2–10 micro-molar) or vehicle (DMSO). Cells were then further incubated for 48 h.

[4] = target: T2, IGF-1R (Homo sapiens, UniProt P08069); assay: Cell-free kinase assay IGF-1R; assay type: biochemical
T2 construct: purchased Promega Corporation V3581
Method: as §1

[5] = tested on: phosphorylation of JAK1, JAK3 and STAT3; assay: Western blotting of JAK/STAT phosphorylation in A549 cells; assay type: cell-based, human
Method: For western blotting, A549 cells were seeded at a density of 0.2 × 10^6 cells/well in 6-well plates. […] Whole-cell lysates were prepared in 1× RIPA buffer (Sigma) with added sodium orthovanadate (1 mM), protease cocktail (Roche), NaF (1 mM), PMSF (1 mM) and EDTA (0.5 M). Protein estimation was done using Bradford reagent (Bio-Rad). […] Whole-cell lysates corresponding to 70-100 µg of protein were loaded. The samples were analysed by SDS-PAGE with a 10% separating gel. […] The membrane was probed with specific antibodies for pJAK-1 (1:1000), p-STAT-3 (CST) (1:1000), total JAK-1 (1:1000), pJAK-3 Z(1:1000), T-JAK-3 (1:1000), total STAT-3(1:1000), GAPDH (1:500), and visualized using ECL (Millipore). GAPDH was used as a loading control. […] Following this starvation period, the A549 cells were pre-treated with varying concentrations of MJ04 for a duration of 4 h. Following the pre-treatment, the cells were stimulated with 10 ng/mL of IL-6 for 30 min [20–22].

[6] = Acute dermal toxicity (OECD 402) in Wistar rats
[7] = target: T3, JAK2 (Homo sapiens, UniProt O60674); assay: Cell-free kinase assay JAK2; assay type: biochemical; settings: for IC50: read-out: IC50 JAK 2
T3 construct: purchased BPS Bioscience 79,520
Method: as §1

[8] = target: T4, EGFR (Homo sapiens, UniProt P00533); assay: Cell-free kinase assay EGFR; assay type: biochemical
T4 construct: purchased Promega Corporation V3831
Method: as §1

[9] = tested on: A549; assay: MTT cell viability assay A549; assay type: cell-based, human; settings: Homo sapiens, A549, 48 h
Method: as §2

[10] = Acute dermal toxicity / irritation in C57BL/6 mice; assay type: in vivo
Method: The acute dermal toxicity was conducted in Wistar rats to determine the dermal LD50 of MJ04 adhering to Organization for Economic Cooperation and Development (OECD) test guideline 402. A single dose of MJ04 covering 10% of body surface area was administered using a fixed dose procedure from 200 mg/kg to 2000 mg/kg with two animals per dose. The animals were monitored for mortality, morbidity, and clinical signs of toxicity at first 30 min, 6 h, 24 h, and thereafter for 14 days. Parameters like body weight, serum biochemistry (liver function test, kidney function test, and lipid Profile), and histopathology were analysed. The acute dermal irritation test was conducted in C57BL/6J mice at a single dose of 0.04 mg/kg and 0.08 mg/kg of MJ04.
Signal dose acute dermal toxicity tests were conducted in C57BL/6 mice. The tests included limited dosages of a single dose at 0.04 mg/kg and 0.08 mg/kg of MJ04. […] Digital photographs were taken at various time points (0 min, 5 min, 1 h, 4 h, 24 h, and 14 days) from representative areas using a Nikon digital camera (n = 5 mice).

[11] = Stability of the formulation used for in vivo studies (HPLC); assay type: physicochemical; settings: ethanol / ethanol:PEG-300, room temperature, 0-48 h
Method: The stability study of the lead compound (MJ04) was performed using HPLC analysis wherein the samples were studied after different time intervals. The 0.6 mg of MJ04 was taken and dissolved in 1 mL of ethanol to achieve 0.6 mg/mL concentration. Out of this, 500 µL was further diluted to 0.3 mg/mL by adding 500 µL ethanol to it (Ethanol sample). To remaining 500 µL, we added 500 µL PEG-300 to achieve final concentration of 0.3 mg /mL (Ethanol:PEG sample). HPLC of these samples was performed at various time points (0 h, 12 h, 24 h and 48 h) upon incubating at room temperature. The HPLC of samples was performed by RP-18 end capped; […], 4.6 × 250 mm. The mobile phase containing water (30%) and acetonitrile (70%) was used at the flow rate of 1 mL/min at a column temperature of 27 °C at 210 nm wavelength. A volume of 5 µL of sample was injected and the total run time of the assay was 30 min using the isocratic technique in the HPLC system.

[12] = tested on: human hair follicles; assay: Human hair follicle organ culture ex-vivo; settings: 20 days culture, vs vehicle and untreated follicles
Method: Hair follicles were collected from three single donors of androgenetic alopecia undergoing hair transplant surgery at the Department of Dermatology, All India Institute of Medical Sciences, New Delhi, India. All experimental procedures were approved by the Institutional Ethics Committee […] of AIIMS, New Delhi (IEC approval No: 550/01.09.2023). Donors were above 18 years of age. Isolated hair follicles were cultured as per the previously described method of Philpott et al.. Immediately after isolation, follicles were placed in 24 well plates under sterile conditions into ice-cold Williams’ medium E (Sigma) with the different concentrations of MJ04 for 20 days. Half media was replaced with fresh media every 3rd day for 20 days. Basal length, i.e., length on the day of starting culture and post treatment was measured. Photographs were taken with a Nikon digital camera.

[13] = A549 cells, increasing concentrations

T3 sequence (O60674 whole entry): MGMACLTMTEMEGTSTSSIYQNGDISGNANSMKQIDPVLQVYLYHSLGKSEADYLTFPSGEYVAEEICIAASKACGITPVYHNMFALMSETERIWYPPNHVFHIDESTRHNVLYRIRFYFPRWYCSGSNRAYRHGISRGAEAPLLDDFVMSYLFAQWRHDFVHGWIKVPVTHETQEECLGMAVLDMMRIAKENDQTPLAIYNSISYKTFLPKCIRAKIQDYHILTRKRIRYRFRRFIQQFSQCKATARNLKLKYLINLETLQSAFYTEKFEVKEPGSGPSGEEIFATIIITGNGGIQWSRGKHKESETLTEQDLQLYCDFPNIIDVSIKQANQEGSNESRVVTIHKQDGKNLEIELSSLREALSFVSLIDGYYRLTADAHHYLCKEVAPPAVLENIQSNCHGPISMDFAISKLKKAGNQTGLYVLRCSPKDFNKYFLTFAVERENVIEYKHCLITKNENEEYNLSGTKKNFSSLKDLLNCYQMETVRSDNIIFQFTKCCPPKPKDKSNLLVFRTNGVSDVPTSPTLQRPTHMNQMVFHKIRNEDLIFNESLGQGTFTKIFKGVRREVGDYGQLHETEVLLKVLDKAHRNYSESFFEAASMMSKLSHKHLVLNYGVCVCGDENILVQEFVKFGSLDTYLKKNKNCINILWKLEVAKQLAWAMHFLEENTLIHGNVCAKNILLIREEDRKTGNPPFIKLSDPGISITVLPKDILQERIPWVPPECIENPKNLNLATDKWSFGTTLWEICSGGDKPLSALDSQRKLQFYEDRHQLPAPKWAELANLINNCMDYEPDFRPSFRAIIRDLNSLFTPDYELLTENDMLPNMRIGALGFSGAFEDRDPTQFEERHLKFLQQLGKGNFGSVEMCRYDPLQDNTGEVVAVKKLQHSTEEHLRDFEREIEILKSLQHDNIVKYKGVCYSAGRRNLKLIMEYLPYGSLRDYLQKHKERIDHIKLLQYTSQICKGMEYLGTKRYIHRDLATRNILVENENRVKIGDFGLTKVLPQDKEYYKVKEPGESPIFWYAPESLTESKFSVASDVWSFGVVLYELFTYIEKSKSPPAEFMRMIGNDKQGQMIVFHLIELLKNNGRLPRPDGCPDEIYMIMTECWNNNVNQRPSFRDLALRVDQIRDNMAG
T2 sequence (P08069 31-1367): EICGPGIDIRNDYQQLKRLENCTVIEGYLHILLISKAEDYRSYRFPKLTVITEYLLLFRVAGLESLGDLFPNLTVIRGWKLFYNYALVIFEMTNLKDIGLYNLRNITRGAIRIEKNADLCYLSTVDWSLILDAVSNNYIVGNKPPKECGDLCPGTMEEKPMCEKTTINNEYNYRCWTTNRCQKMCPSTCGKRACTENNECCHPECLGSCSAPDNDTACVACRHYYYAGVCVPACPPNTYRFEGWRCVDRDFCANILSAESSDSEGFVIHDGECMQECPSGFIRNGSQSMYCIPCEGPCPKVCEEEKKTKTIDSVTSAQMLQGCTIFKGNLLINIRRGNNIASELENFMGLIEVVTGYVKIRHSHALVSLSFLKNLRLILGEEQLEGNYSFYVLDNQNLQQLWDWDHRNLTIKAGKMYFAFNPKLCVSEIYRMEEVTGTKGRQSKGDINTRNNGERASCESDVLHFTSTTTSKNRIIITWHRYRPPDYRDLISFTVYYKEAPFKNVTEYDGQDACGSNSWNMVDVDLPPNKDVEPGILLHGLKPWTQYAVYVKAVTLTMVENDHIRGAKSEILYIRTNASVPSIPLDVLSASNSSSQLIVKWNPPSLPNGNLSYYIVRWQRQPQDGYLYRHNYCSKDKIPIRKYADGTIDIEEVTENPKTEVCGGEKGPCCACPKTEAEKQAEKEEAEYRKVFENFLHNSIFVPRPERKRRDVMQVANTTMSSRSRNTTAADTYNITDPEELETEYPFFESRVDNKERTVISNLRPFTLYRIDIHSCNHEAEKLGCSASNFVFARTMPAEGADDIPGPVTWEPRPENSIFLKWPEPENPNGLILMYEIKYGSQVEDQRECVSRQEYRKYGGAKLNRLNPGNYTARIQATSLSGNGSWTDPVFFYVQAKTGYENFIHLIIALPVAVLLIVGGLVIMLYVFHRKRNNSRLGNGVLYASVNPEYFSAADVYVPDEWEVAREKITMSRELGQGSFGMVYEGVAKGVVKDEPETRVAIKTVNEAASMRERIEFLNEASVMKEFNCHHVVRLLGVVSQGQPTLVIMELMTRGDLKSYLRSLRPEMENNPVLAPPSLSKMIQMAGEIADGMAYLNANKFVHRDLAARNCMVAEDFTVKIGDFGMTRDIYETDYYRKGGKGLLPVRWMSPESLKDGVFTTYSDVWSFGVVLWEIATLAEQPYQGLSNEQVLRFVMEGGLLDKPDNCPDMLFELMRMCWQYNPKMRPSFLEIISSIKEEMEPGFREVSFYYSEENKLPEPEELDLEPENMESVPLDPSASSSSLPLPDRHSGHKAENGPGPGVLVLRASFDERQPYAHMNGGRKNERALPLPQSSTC
T4 sequence (P00533 25-1210): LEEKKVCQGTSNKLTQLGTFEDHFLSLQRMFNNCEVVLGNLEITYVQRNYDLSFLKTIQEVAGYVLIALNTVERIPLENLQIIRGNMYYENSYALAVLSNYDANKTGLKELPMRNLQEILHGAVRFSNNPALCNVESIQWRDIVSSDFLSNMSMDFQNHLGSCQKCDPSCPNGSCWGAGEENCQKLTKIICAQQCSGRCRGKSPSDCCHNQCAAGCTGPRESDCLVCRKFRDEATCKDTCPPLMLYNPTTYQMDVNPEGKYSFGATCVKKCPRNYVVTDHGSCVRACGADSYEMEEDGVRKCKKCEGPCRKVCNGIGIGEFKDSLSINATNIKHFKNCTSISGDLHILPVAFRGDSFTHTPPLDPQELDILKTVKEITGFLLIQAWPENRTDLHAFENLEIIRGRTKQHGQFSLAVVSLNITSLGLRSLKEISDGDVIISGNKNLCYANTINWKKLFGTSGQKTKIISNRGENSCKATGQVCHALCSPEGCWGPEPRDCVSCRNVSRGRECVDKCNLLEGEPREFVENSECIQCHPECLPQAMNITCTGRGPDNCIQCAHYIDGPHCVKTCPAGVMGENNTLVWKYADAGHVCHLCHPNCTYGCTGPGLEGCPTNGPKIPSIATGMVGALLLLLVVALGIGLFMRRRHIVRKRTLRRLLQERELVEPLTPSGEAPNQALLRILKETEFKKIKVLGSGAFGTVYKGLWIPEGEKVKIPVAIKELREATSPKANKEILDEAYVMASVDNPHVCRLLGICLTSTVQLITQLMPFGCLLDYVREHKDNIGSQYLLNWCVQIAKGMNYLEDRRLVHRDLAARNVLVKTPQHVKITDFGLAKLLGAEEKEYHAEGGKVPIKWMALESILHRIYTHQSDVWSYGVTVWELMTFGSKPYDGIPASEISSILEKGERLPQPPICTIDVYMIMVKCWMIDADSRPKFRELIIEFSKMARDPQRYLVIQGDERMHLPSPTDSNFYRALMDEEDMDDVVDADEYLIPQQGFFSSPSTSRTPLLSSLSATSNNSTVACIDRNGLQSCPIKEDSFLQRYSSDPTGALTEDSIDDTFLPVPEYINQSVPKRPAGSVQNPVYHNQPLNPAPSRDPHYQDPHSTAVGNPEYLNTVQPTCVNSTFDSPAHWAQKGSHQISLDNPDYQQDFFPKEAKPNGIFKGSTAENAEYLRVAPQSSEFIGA

## Fc1ccc(-c2cnc3[nH]cc(-c4ccnc(NC5CC5)n4)c3c2)cc1 [MJ04]
[1]
  differentiation of naïve T cells into Th1 subsets: inhibits the differentiation of naïve T cells
[2]
  IC50: > 10 µM
[3]
  IC50: 2.6 µM
[4]; IGF-1R
  Fold of selectivity vs. JAK3: 476
[4]; Km ATP
  IC50: 0.967 µM
[5]; A549 cells stimulated with IL-6
  STAT3 phosphorylation: significant decrease
[5]; A549 cells, dose-dependent
  phosphorylation of STAT3 (Tyr705): significant decrease
[5]; [13]
  phosphorylation of JAK1: significant reduction
  phosphorylation of JAK3: significant reduction
[6]; 2000 mg/kg body weight, single dermal dose, 14 days
  mortality and clinical signs of toxicity: no mortality and clinical signs of toxicity
[6]; Wistar, rat, in vivo, topical or ocular
  LD50 at 14 days: > 2000 mg/kg
[7]; 1mM ATP
  IC50: > 10 µM
[7]; JAK 2
  Fold of selectivity vs. JAK3: 126
[7]; Km ATP
  IC50: 0.256 µM
[8]; EGFR
  Fold of selectivity vs. JAK3: 1609
[8]; Km ATP
  IC50: 3.27 µM
[9]
  IC50: 3.79 µM
[10]; single dose 0.04 mg/kg
  mortality or clinical signs of toxicity: no mortality or clinical signs of toxicity
[10]; single dose 0.08 mg/kg, 14 days, 0.08 mg/kg
  skin irritation/corrosion, mortality or clinical signs of toxicity: no skin irritation/corrosion, mortality or clinical signs of toxicity
[11]
  stability in the formulation used for animal experiments: stable
[12]
  length of hair shafts: significantly increased the length of hair shafts
